Assay [1] relates to sAPPβ levels in H4 human neuroglioma cells over-expressing the wild-type human APP695. The experiment in a line: Whole Cell Assay (In Vitro sAPPb Assay). Format: cell-based. The note with it: 18 hours treatment, average of 2 determinations, values marked b: geometric mean of 3-9 determinations. As for the experimental part:
Whole Cell Assay (In Vitro sAPPb Assay):
H4 human neuroglioma cells over-expressing the wild-type human APP695 are treated for 18 hours with compound in a final concentration 1% DMSO. sAPPβ levels are measured using TMB-ELISA with capture APP N-terminal antibody (Affinity BioReagents, OMA1-03132), wild-type sAPPβ specific reporter p192 (Elan), and tertiary anti rabbit-HRP (GE Healthcare).

In a further assay the target is BACE1 enzyme (Homo sapiens (Human), UniProt P56817). Description: BACE1 Cell-Free Assay (fluorescence polarization, cleavage of synthetic APP substrate). It is filed as biochemical. The conditions noted are these: average of 2 determinations; values marked b: geometric mean of 3-9 determinations. The text has this: This assay measures the inhibition of the beta-secretase enzyme as it cleaves a non-native peptide.
BACE1 enzyme, sequence (P56817 46-457): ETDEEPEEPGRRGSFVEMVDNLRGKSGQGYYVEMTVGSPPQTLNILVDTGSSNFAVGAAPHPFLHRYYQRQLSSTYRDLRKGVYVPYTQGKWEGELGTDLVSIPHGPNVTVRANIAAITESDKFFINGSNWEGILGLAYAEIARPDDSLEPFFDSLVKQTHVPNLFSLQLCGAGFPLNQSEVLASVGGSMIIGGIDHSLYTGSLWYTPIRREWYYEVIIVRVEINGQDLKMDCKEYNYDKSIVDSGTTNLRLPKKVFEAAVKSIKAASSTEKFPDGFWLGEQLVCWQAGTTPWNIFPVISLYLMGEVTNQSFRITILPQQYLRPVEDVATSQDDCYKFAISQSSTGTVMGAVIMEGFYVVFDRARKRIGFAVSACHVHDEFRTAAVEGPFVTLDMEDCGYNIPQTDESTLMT
A synthetic APP substrate that can be cleaved by beta-secretase having N-terminal biotin and made fluorescent by the covalent attachment of Oregon Green at the Cys residue is used to assay beta-secretase activity in the presence or absence of the inhibitory compounds. […] The BACE1 enzyme is affinity purified material from conditioned media of CHO-K1 cells that have been transfected with a soluble BACE construct (BACE1deltaTM96His). Compounds are incubated in a ½ log dose response curve from a top concentration of 100 μM with BACE1 enzyme and the biotinylated fluorescent peptide in 384-well black plates (Thermo Scientific #4318). BACE1 is at a final concentration of 0.1 nM with a final concentration of peptide substrate of 150 nM in a reaction volume of 30 μL assay buffer [100 mM sodium acetate, pH 4.5 (brought to pH with acetic acid), and 0.001% Tween-20]. Plates are covered and incubated for 3 hours at 37° C. The reaction is stopped with the addition of 30 μL of 1.5 μM Streptavidin (Pierce, #21125). After a 10 minute incubation at room temperature, plates are read on a PerkinElmer EnVision for fluorescence polarization (Ex485 nm/Em530 nm). The activity of the beta-secretase enzyme is detected by changes in the fluorescence polarization that occur when the substrate is cleaved by the enzyme.

pIC50: −log10 of the molar value.

With `Cc1ccc([C@H]2C[C@H]3CSC(N)=N[C@@]3(c3ccc(F)cc3F)CO2)cn1` (relative stereo) [Example 7, rel-(4aR,6R,8aS)-8a-(2,4-Difluorophenyl)-6-(6-methylpyridin-3-yl)-4,4a,5,6,8,8a-hexahydropyrano[3,4-d][1,3]thiazin-2-amine], in assay [1] (Homo sapiens), the pIC50 is 8.17.

Take `Cn1nc([C@H]2C[C@H]3CSC(N)=N[C@@]3(c3ccc(F)cc3F)CO2)cc1F` [Example 1, (4aR,6R,8aS)-8a-(2,4-difluorophenyl)-6-(5-fluoro-1-methyl-1H-pyrazol-3-yl)-4,4a,5,6,8,8a-hexahydropyrano[3,4-d][1,3]thiazin-2-amine]: the pIC50 in assay [1] (Homo sapiens) is 8.42; at BACE1 enzyme it was 7.08.

In the case of `NC1=N[C@@]2(c3ccc(F)cc3F)CO[C@@H](c3ccc(F)cn3)C[C@H]2CS1` [Example 2, (4aR,6R,8aS)-8a-(2,4-Difluorophenyl)-6-(5-fluoropyridin-2-yl)-4,4a,5,6,8,8a-hexahydropyrano[3,4-d][1,3]thiazin-2-amine], the pIC50 in assay [1] (Homo sapiens) is 7.74; on BACE1 enzyme it was 6.63.

For `Cn1cc([C@H]2C[C@H]3CSC(N)=N[C@@]3(c3ccc(F)cc3F)CO2)ccc1=O` [Example 3, 5-[(4aR,6R,8aS)-2-Amino-8a-(2,4-difluorophenyl)-4,4a,5,6,8,8a-hexahydropyrano[3,4-d][1,3]thiazin-6-yl]-1-methylpyridin-2(1H)-one], the pIC50 in assay [1] (Homo sapiens) was 8.13; on BACE1 enzyme, 6.92.

`NC1=N[C@@]2(c3ccc(F)cc3F)CO[C@@H](c3cn4cccnc4n3)C[C@H]2CS1` [Example 4, (4aR,6R,8aS)-8a-(2,4-Difluorophenyl)-6-(imidazo[1,2-a]pyrimidin-2-yl)-4,4a,5,6,8,8a-hexahydropyrano[3,4-d][1,3]thiazin-2-amine]: the figures for the pIC50 (in assay [1] (Homo sapiens); against BACE1 enzyme) were 7.18 and 5.74, respectively.

As to `NC1=N[C@@]2(c3ccc(F)cc3F)CO[C@@H](c3cnn(CC(F)(F)F)c3)C[C@H]2CS1` [Example 5, (4aR,6R,8aS)-8a-(2,4-Difluorophenyl)-6-[1-(2,2,2-trifluoroethyl)-1H-pyrazol-4-yl]-4,4a,5,6,8,8a-hexahydropyrano[3,4-d][1,3]thiazin-2-amine], the negative-log IC50 (pIC50) was 7.88 in assay [1] (Homo sapiens) and 7.14 on BACE1 enzyme.

As for `Cc1nc([C@H]2C[C@H]3CSC(N)=N[C@@]3(c3ccc(F)cc3F)CO2)no1` [Example 6, (4aR,6R,8aS)-8a-(2,4-Difluorophenyl)-6-(5-methyl-1,2,4-oxadiazol-3-yl)-4,4a,5,6,8,8a-hexahydropyrano[3,4-d][1,3]thiazin-2-amine], the values for the negative-log IC50 (pIC50) (in assay [1] (Homo sapiens); against BACE1 enzyme) were 7.38 and 6.47, respectively.

As for `Cn1cc(F)c([C@H]2C[C@H]3CSC(N)=N[C@@]3(c3ccc(F)cc3F)CO2)n1` [Example 8, (4aR,6R,8aS)-8a-(2,4-difluorophenyl)-6-(4-fluoro-1-methyl-1H-pyrazol-3-yl)-4,4a,5,6,8,8a-hexahydropyrano[3,4-d][1,3]thiazin-2-amine], the results for the pIC50 (in assay [1] (Homo sapiens); at BACE1 enzyme) were 7.58 and 6.79, respectively.

Regarding `Cc1cc([C@H]2C[C@H]3[C@@H](C)SC(N)=N[C@@]3(c3ccc(F)cc3F)CO2)on1` [Example 9, (4R,4aR,6R,8aS)-8a-(2,4-difluorophenyl)-4-methyl-6-(3-methyl-1,2-oxazol-5-yl)-4,4a,5,6,8,8a-hexahydropyrano[3,4-d][1,3]thiazin-2-amine], the negative-log IC50 (pIC50) in assay [1] (Homo sapiens) is 8.28; against BACE1 enzyme, 7.12.

Turning to `NC1=N[C@@]2(c3ccc(F)cc3F)CO[C@@H](c3nc4cnccc4o3)C[C@H]2CS1` [Example 10, (4aR,6R,8aS)-8a-(2,4-difluorophenyl)-6-([1,3]oxazolo[4,5-c]pyridin-2-yl)-4,4a,5,6,8,8a-hexahydropyrano[3,4-d][1,3]thiazin-2-amine], the negative logarithm of the IC50 (pIC50) in assay [1] (Homo sapiens) was 7.67; against BACE1 enzyme, 6.62.

As for `COc1cnc([C@H]2C[C@H]3CSC(N)=N[C@@]3(c3ccc(F)cc3F)CO2)nc1` [Example 11, (4aR,6R,8aS)-8a-(2,4-Difluorophenyl)-6-(5-methoxypyrimidin-2-yl)-4,4a,5,6,8,8a-hexahydropyrano[3,4-d][1,3]thiazin-2-amine], the figures for the negative-log IC50 (pIC50) (in assay [1] (Homo sapiens); at BACE1 enzyme) were 7.54 and 6.46, respectively.

Regarding `Cn1ncc([C@H]2C[C@H]3CSC(N)=N[C@@]3(c3ccc(F)cc3F)CO2)n1` [Example 12, (4aR,6R,8aS)-8a-(2,4-Difluorophenyl)-6-(2-methyl-2H-1,2,3-triazol-4-yl)-4,4a,5,6,8,8a-hexahydropyrano[3,4-d][1,3]thiazin-2-amine], the negative logarithm of the IC50 (pIC50) in assay [1] (Homo sapiens) was 7.38; on BACE1 enzyme, 6.33.

For the compound `Cc1cc([C@H]2C[C@H]3[C@@H](CF)SC(N)=N[C@@]3(c3ccc(F)cc3F)CO2)on1` [Example 13, (4S,4aR,6R,8aS)-8a-(2,4-Difluorophenyl)-4-(fluoromethyl)-6-(3-methyl-1,2-oxazol-5-yl)-4,4a,5,6,8,8a-hexahydropyrano[3,4-d][1,3]thiazin-2-amine], the results for the pIC50 (in assay [1] (Homo sapiens); against BACE1 enzyme) were 7.88 and 7.26, respectively.

Consider `NC1=N[C@@]2(c3ccc(F)cc3F)CO[C@@H](c3nc(C(F)F)co3)C[C@H]2CS1` [Example 14, (4aR,6R,8aS)-6-[4-(Difluoromethyl)-1,3-oxazol-2-yl]-8a-(2,4-difluorophenyl)-4,4a,5,6,8,8a-hexahydropyrano[3,4-d][1,3]thiazin-2-amine], for which the values for the pIC50 (in assay [1] (Homo sapiens); on BACE1 enzyme) were 7.68 and 6.64, respectively.

On to `C[C@H]1SC(N)=N[C@@]2(c3ccc(F)cc3F)CO[C@@H](c3cnn(C)c3)C[C@@H]12` [Example 16, (4R,4aR,6R,8aS)-8a-(2,4-Difluorophenyl)-4-methyl-6-(1-methyl-1H-pyrazol-4-yl)-4,4a,5,6,8,8a-hexahydropyrano[3,4-d][1,3]thiazin-2-amine], for which the pIC50 was 8.55 in assay [1] (Homo sapiens) and 7.61 against BACE1 enzyme.

`Cc1ncc([C@H]2C[C@H]3CSC(N)=N[C@@]3(c3ccc(F)cc3F)CO2)cn1` [Example 17, (4aR,6R,8aS)-8a-(2,4-difluorophenyl)-6-(2-methylpyrimidin-5-yl)-4,4a,5,6,8,8a-hexahydropyrano[3,4-d][1,3]thiazin-2-amine]: the pIC50 in assay [1] (Homo sapiens) is 7.22; against BACE1 enzyme, 5.85.

With `Cn1cc([C@H]2C[C@H]3CSC(N)=N[C@@]3(c3ccc(F)cc3F)CO2)nn1` [Example 18, (4aR,6R,8aS)-8a-(2,4-Difluorophenyl)-6-(1-methyl-1H-1,2,3-triazol-4-yl)-4,4a,5,6,8,8a-hexahydropyrano[3,4-d][1,3]thiazin-2-amine], the negative-log IC50 (pIC50) in assay [1] (Homo sapiens) was 7.60; against BACE1 enzyme it was 6.06.

On to `N#Cc1coc([C@H]2C[C@H]3CSC(N)=N[C@@]3(c3ccc(F)cc3F)CO2)n1` [Example 19, 2-[(4aR,6R,8aS)-2-Amino-8a-(2,4-difluorophenyl)-4,4a,5,6,8,8a-hexahydropyrano[3,4-d][1,3]thiazin-6-yl]-1,3-oxazole-4-carbonitrile], for which the negative logarithm of the IC50 (pIC50) was 7.14 in assay [1] (Homo sapiens) and 6.26 against BACE1 enzyme.

As to `Cc1cnc([C@H]2C[C@H]3CSC(N)=N[C@@]3(c3ccc(F)cc3F)CO2)cn1` [Example 20, (4aR,6R,8aS)-8a-(2,4-Difluorophenyl)-6-(5-methylpyrazin-2-yl)-4,4a,5,6,8,8a-hexahydropyrano[3,4-d][1,3]thiazin-2-amine], the pIC50 in assay [1] (Homo sapiens) was 7.69; at BACE1 enzyme, 6.41.

In the case of `CCOc1cc([C@H]2C[C@H]3CSC(N)=N[C@@]3(c3ccc(F)cc3F)CO2)nn1C` [Example 21, (4aR,6R,8aS)-8a-(2,4-Difluorophenyl)-6-(5-ethoxy-1-methyl-1H-pyrazol-3-yl)-4,4a,5,6,8,8a-hexahydropyrano[3,4-d][1,3]thiazin-2-amine], the negative logarithm of the IC50 (pIC50) in assay [1] (Homo sapiens) is 6.91; against BACE1 enzyme, 5.27.

In turn, `Cn1cc([C@H]2C[C@H]3[C@@H](CF)SC(N)=N[C@@]3(c3ccc(F)cc3F)CO2)cn1` [Example 22, (4S,4aR,6R,8aS)-8a-(2,4-Difluorophenyl)-4-(fluoromethyl)-6-(1-methyl-1H-pyrazol-4-yl)-4,4a,5,6,8,8a-hexahydropyrano[3,4-d][1,3]thiazin-2-amine] showed a pIC50 in assay [1] (Homo sapiens) of 8.20.

In the case of `NC1=N[C@@]2(c3ccc(F)cc3F)CO[C@@H](c3cncc(F)c3)C[C@H]2CS1` [Example 29, (4aR,6R,8aS)-8a-(2,4-difluorophenyl)-6-(5-fluoropyridin-3-yl)-4,4a,5,6,8,8a-hexahydropyrano[3,4-d][1,3]thiazin-2-amine], the negative logarithm of the IC50 (pIC50) in assay [1] (Homo sapiens) was 8.57.

In turn, “(4aR,6R,8aS)-8a-(2,4-Difluorophenyl)-6-[1-(^2H3)methyl-1H-pyrazol-4-yl]-4,4a,5,6,8,8a-hexahydropyrano[3,4-d][1,3]thiazin-2-amine [Example 15]” had a negative-log IC50 (pIC50) in assay [1] of 8.36.

The record behind these values is patent publication US8865706B2, “Heteroaryl-substituted hexahydropyrano[3,4-d][1,3]thiazin-2-amine compounds” (Pfizer Inc., priority 2013, dated 2014).
